In ChEMBL document CHEMBL2163222 (J Med Chem, 2012):

Experiments:
[1] = Growth inhibition of human OE21 cells after 3 days by MTT assay; format: functional, cell-based; settings: OE21, 72 h
[2] = test system: Hs 683; test: cells; settings: Homo sapiens, Hs 683, 72 h
[3] = test system: T98G; test: cells; settings: Homo sapiens, 72 h
[4] = cells; settings: Homo sapiens, U373 MG, 72 h
[5] = test system: OE33; test: Growth inhibition of human OE33 cells after 3 days by MTT assay; format: functional, cell-based; settings: OE33, 72 h

| Structure (SMILES) | IC50 [2] | IC50 [3] | IC50 [4] | IC50 [1] | IC50 [5] |
| --- | --- | --- | --- | --- | --- |
| Cc1nccc2c1[nH]c1cc(OCCc3ccccc3)ccc12 | 21 µM | 21 µM | 9.1 µM | 14 µM | 7.9 µM |
| CCCn1c2cc(OCc3ccccc3)ccc2c2cc[n+](Cc3ccccc3)c(C)c21 | 2.6 µM | 1.7 µM | 0.41 µM | 0.57 µM | 0.3 µM |
| Cc1nccc2c1[nH]c1cc(OCc3ccncc3)ccc12 | 8.1 µM | 3.6 µM | 2.5 µM | 5 µM | 6.3 µM |
| Cc1nccc2c3ccc(OCc4cccc(F)c4)cc3n(Cc3cccc(F)c3)c12 | 18 µM | 27 µM | 0.4 µM | 7.9 µM | 16 µM |
| Cc1nccc2c1[nH]c1cc(OCc3ccccc3)ccc12 | 17 µM | 17 µM | 9.3 µM | 21 µM | 4.1 µM |
| Cc1nccc2c1[nH]c1cc(OC(=O)c3ccccc3)ccc12 | 53 µM | 42 µM | 27 µM | 30 µM | 31 µM |
| Cc1nccc2c1[nH]c1cc(OCCO)ccc12 | 41 µM | 53 µM | 42 µM | 30 µM | 63 µM |
| Cc1nccc2c3ccc(O)cc3n(Cc3ccccc3)c12 | 79 µM | 81 µM | 80 µM | 35 µM | 35 µM |
| Cc1c2c(cc[n+]1Cc1ccccc1)c1ccc(OCc3cccc(F)c3)cc1n2Cc1cccc(F)c1 | 2.8 µM | 0.97 µM | 0.8 µM | 0.4 µM | 2.9 µM |
| CCCn1c2cc(OCc3ccccc3)ccc2c2cc[n+](Cc3ccc(F)cc3)c(C)c21 | 3.1 µM | 5.7 µM | 0.88 µM | 1.9 µM | 1 µM |
| C=CCOc1ccc2c(c1)[nH]c1c(C)nccc12 | 28 µM | 32 µM | 32 µM | 27 µM | 30 µM |
| Cc1c2c(cc[n+]1CCO)c1ccc(OCC3CCCCC3)cc1n2CC1CCCCC1 | 3.8 µM | 2.6 µM | 1.7 µM | – | – |
| COc1ccc2c(c1)[nH]c1c(C)nccc12 [HARMINE] | – | 24 µM | 32 µM | 32 µM | 18 µM |
| Cc1nccc2c1[nH]c1cc(OCc3cccc4ccccc34)ccc12 | 19 µM | 12 µM | 7.4 µM | 33 µM | 8.2 µM |
| Cc1nccc2c3ccc(OCCC(C)C)cc3n(CCC(C)C)c12 | 30 µM | 35 µM | 33 µM | 30 µM | – |
| Cc1c2c(cc[n+]1Cc1ccc(F)cc1)c1ccc(OCC3CCCCC3)cc1n2CC1CCCCC1 | 3.1 µM | 2 µM | 0.04 µM | 1.4 µM | 1 µM |
| Cc1c2c(cc[n+]1CCc1ccccc1)c1ccc(OCc3ccccc3)cc1n2Cc1ccccc1 | 2.3 µM | 2.4 µM | 2 µM | 2.4 µM | – |
| Cc1nccc2c3ccc(OCc4ccc(F)cc4)cc3n(Cc3ccc(F)cc3)c12 | 17 µM | 14 µM | 30 µM | 15 µM | 25 µM |
| Cc1nccc2c1[nH]c1cc(OCC(C)C)ccc12 | 23 µM | 22 µM | 24 µM | 12 µM | 25 µM |
| Cc1c2[nH]c3cc(OCc4ccccc4)ccc3c2cc[n+]1Cc1ccccc1 | 3.6 µM | 5.6 µM | 3.9 µM | 6 µM | 5.5 µM |
| Cc1nccc2c1[nH]c1cc(OCCCC(F)(F)F)ccc12 | > 100 µM | 86 µM | > 100 µM | > 100 µM | > 100 µM |
| Cc1c2c(cc[n+]1CCO)c1ccc(OCCC(C)C)cc1n2CCC(C)C | 4 µM | 2.9 µM | 2.5 µM | 7.6 µM | – |
| CCCn1c2cc(OCc3ccccc3)ccc2c2ccnc(C)c21 | 13 µM | 34 µM | 26 µM | 23 µM | 9 µM |
| Cc1c2c(cc[n+]1Cc1ccc(F)cc1)c1ccc(OCc3ccc(F)cc3)cc1n2Cc1ccc(F)cc1 | 13 µM | 14 µM | 2.9 µM | 3.7 µM | 3.1 µM |
| Cc1c2c(cc[n+]1CCc1ccccc1)c1ccc(OCCC(C)C)cc1n2CCC(C)C | 3.1 µM | 3.5 µM | 3.4 µM | 3.7 µM | – |
| Cc1c2c(cc[n+]1CCO)c1ccc(OCc3ccccc3)cc1n2Cc1ccccc1 | 31 µM | 61 µM | 9 µM | 25 µM | – |
| Cc1nccc2c1[nH]c1cc(OCc3ccccn3)ccc12 | 20 µM | 20 µM | 21 µM | 16 µM | 23 µM |
| Cc1nccc2c1[nH]c1cc(OCC3CCCCC3)ccc12 | 22 µM | 7.2 µM | 7.5 µM | 8.3 µM | 8.1 µM |

The remaining molecules from weak to strong by IC50 [2], led by results:

| IC50 [2] | IC50 [3] | IC50 [4] | Structure (SMILES) | IC50 [1] | IC50 [5] |
| --- | --- | --- | --- | --- | --- |
| 2.2 µM | 0.7 µM | 0.6 µM | Cc1c2c(cc[n+]1Cc1ccccc1F)c1ccc(OCc3cccc(F)c3)cc1n2Cc1cccc(F)c1 | 1.4 µM | 3 µM |
| 1.6 µM | 0.6 µM | 0.6 µM | Cc1c2c(cc[n+]1Cc1ccc(F)cc1)c1ccc(OCc3ccccc3)cc1n2Cc1ccccc1 | 0.61 µM | 2.4 µM |
| 1.2 µM | 0.43 µM | 0.5 µM | Cc1c2c(cc[n+]1Cc1ccccc1F)c1ccc(OCc3ccc(F)cc3)cc1n2Cc1ccc(F)cc1 | 1.6 µM | 1.6 µM |
| 0.9 µM | 0.4 µM | 0.43 µM | Cc1c2c(cc[n+]1Cc1ccccc1)c1ccc(OCc3ccc(F)cc3)cc1n2Cc1ccc(F)cc1 | 0.5 µM | 1.4 µM |
| 0.6 µM | 11 µM | 2.5 µM | CCC[n+]1ccc2c3ccc(OCc4ccccc4)cc3n(Cc3ccccc3)c2c1C | 3.4 µM | – |
| 0.6 µM | 3.1 µM | 0.7 µM | CCCCCC[n+]1ccc2c3ccc(OCc4ccccc4)cc3n(Cc3ccccc3)c2c1C | 1.9 µM | – |
| 0.47 µM | 0.6 µM | 0.38 µM | Cc1c2c(cc[n+]1Cc1ccccc1)c1ccc(OCCC(C)C)cc1n2CCC(C)C | – | – |
| 0.45 µM | 1.8 µM | 0.39 µM | CCCn1c2cc(OCc3ccccc3)ccc2c2cc[n+](Cc3ccccc3F)c(C)c21 | 0.42 µM | 0.25 µM |
| 0.44 µM | 0.37 µM | 0.5 µM | Cc1c2c(cc[n+]1Cc1ccccc1F)c1ccc(OCc3ccccc3)cc1n2Cc1ccccc1 | 0.38 µM | 0.7 µM |
| 0.42 µM | 0.43 µM | 0.4 µM | Cc1c2c(cc[n+]1CCC(C)C)c1ccc(OCC3CCCCC3)cc1n2CC1CCCCC1 | – | – |
| 0.37 µM | 1.2 µM | 0.39 µM | Cc1c2c(cc[n+]1CCC(C)C)c1ccc(OCc3ccccc3)cc1n2Cc1ccccc1 | 0.5 µM | – |
| 0.31 µM | 0.26 µM | 0.2 µM | Cc1c2c(cc[n+]1CCc1ccccc1)c1ccc(OCC3CCCCC3)cc1n2CC1CCCCC1 | – | – |
| 0.26 µM | 0.41 µM | 0.22 µM | Cc1c2c(cc[n+]1CCC(C)C)c1ccc(OCCC(C)C)cc1n2CCC(C)C | 0.48 µM | – |
| 0.25 µM | 0.07 µM | 1.4 µM | Cc1c2c(cc[n+]1Cc1ccccc1F)c1ccc(OCC3CCCCC3)cc1n2CC1CCCCC1 | 0.35 µM | 0.35 µM |
